Source: the NIST ThermoML archive (doi:10.1016/j.jct.2004.04.013)
Several values for one entry are separate records, joined by “and”; a condition that tells them apart may be missing. Identical values can stand only once. ± gives the expanded uncertainty stated by the source.

Settings: Liquid, Pulse-echo method

c1ccccc1 [benzene]
Settings	speed of sound
283.15 K, 101 kPa	1371.6 ± 2.8 m/s
283.15 K, 1112 kPa	1376.8 ± 2.8 m/s
283.15 K, 2281 kPa	1382.4 ± 2.8 m/s
283.15 K, 4616 kPa	1393.2 ± 2.9 m/s
283.15 K, 6766 kPa	1403.3 ± 2.9 m/s
283.15 K, 9100 kPa	1413.6 ± 2.9 m/s
283.15 K, 11628 kPa	1424.5 ± 2.9 m/s
283.15 K, 14278 kPa	1436 ± 2.9 m/s
283.15 K, 15957 kPa	1443.4 ± 3 m/s
283.15 K, 18556 kPa	1454 ± 3 m/s
283.15 K, 20823 kPa	1463 ± 3 m/s
283.15 K, 23405 kPa	1473.4 ± 3 m/s
298.15 K, 101 kPa	1299.9 ± 2.7 m/s and 1300.2 ± 2.7 m/s
298.15 K, 888 kPa	1305 ± 2.7 m/s
298.15 K, 1246 kPa	1305.8 ± 2.7 m/s
298.15 K, 2254 kPa	1311.8 ± 2.7 m/s
298.15 K, 2506 kPa	1312.2 ± 2.7 m/s
298.15 K, 4580 kPa	1322.5 ± 2.7 m/s
298.15 K, 4719 kPa	1323.9 ± 2.7 m/s
298.15 K, 6991 kPa	1334.4 ± 2.7 m/s
298.15 K, 7131 kPa	1335.5 ± 2.7 m/s
298.15 K, 9327 kPa	1346.2 ± 2.8 m/s
298.15 K, 9335 kPa	1346.2 ± 2.8 m/s
298.15 K, 9408 kPa	1346 ± 2.8 m/s
298.15 K, 11563 kPa	1355.8 ± 2.8 m/s
298.15 K, 11640 kPa	1357 ± 2.8 m/s
298.15 K, 14137 kPa	1368.5 ± 2.8 m/s
298.15 K, 14317 kPa	1368.6 ± 2.8 m/s
298.15 K, 15927 kPa	1375.9 ± 2.8 m/s
298.15 K, 16524 kPa	1379.1 ± 2.8 m/s
298.15 K, 18655 kPa	1388.6 ± 2.9 m/s
298.15 K, 18844 kPa	1389 ± 2.9 m/s
298.15 K, 20826 kPa	1398.1 ± 2.9 m/s
298.15 K, 21001 kPa	1398.6 ± 2.9 m/s
298.15 K, 23151 kPa	1407.9 ± 2.9 m/s
298.15 K, 23834 kPa	1410.7 ± 2.9 m/s
298.15 K, 25699 kPa	1418.5 ± 2.9 m/s
298.15 K, 26172 kPa	1420.5 ± 2.9 m/s
298.15 K, 28369 kPa	1428.5 ± 2.9 m/s
313.15 K, 101 kPa	1230.8 ± 2.5 m/s
313.15 K, 2047 kPa	1241.3 ± 2.6 m/s
313.15 K, 3268 kPa	1247.8 ± 2.6 m/s
313.15 K, 5111 kPa	1257.8 ± 2.6 m/s
313.15 K, 7199 kPa	1268.7 ± 2.6 m/s
313.15 K, 9383 kPa	1280 ± 2.6 m/s
313.15 K, 11613 kPa	1291.3 ± 2.7 m/s
313.15 K, 14139 kPa	1303.7 ± 2.7 m/s
313.15 K, 16386 kPa	1314.6 ± 2.7 m/s
313.15 K, 18686 kPa	1325.5 ± 2.7 m/s
313.15 K, 21242 kPa	1337.2 ± 2.7 m/s
313.15 K, 23254 kPa	1346.4 ± 2.8 m/s
313.15 K, 24384 kPa	1351.3 ± 2.8 m/s
313.15 K, 25607 kPa	1357.2 ± 2.8 m/s
313.15 K, 25608 kPa	1357.3 ± 2.8 m/s
313.15 K, 28210 kPa	1368.6 ± 2.8 m/s
333.15 K, 101 kPa	1142.4 ± 2.4 m/s
333.15 K, 1260 kPa	1148 ± 2.4 m/s
333.15 K, 2426 kPa	1155 ± 2.4 m/s
333.15 K, 5026 kPa	1170.5 ± 2.4 m/s
333.15 K, 7135 kPa	1182.9 ± 2.4 m/s
333.15 K, 9195 kPa	1194.5 ± 2.5 m/s
333.15 K, 11729 kPa	1208.4 ± 2.5 m/s
333.15 K, 14011 kPa	1220.6 ± 2.5 m/s
333.15 K, 16310 kPa	1232.7 ± 2.5 m/s
333.15 K, 18687 kPa	1244.8 ± 2.6 m/s
333.15 K, 20059 kPa	1251.8 ± 2.6 m/s
333.15 K, 21112 kPa	1257.2 ± 2.6 m/s
333.15 K, 23196 kPa	1267.4 ± 2.6 m/s
333.15 K, 25517 kPa	1278.7 ± 2.6 m/s
333.15 K, 28165 kPa	1287.7 ± 2.6 m/s

ClC(Cl)(Cl)Cl [tetrachloromethane]
Settings	speed of sound [m/s]
283.15 K, 101 kPa	969.1 ± 2
283.15 K, 497 kPa	970.5 ± 2
283.15 K, 1065 kPa	972.7 ± 2
283.15 K, 2192 kPa	976.9 ± 2
283.15 K, 2306 kPa	977.4 ± 2
283.15 K, 3433 kPa	981.6 ± 2
283.15 K, 5102 kPa	987.7 ± 2
283.15 K, 5958 kPa	990.8 ± 2
283.15 K, 7972 kPa	998 ± 2.1
283.15 K, 8771 kPa	1000.6 ± 2.1
283.15 K, 9833 kPa	1004.6 ± 2.1
283.15 K, 11260 kPa	1009.5 ± 2.1
283.15 K, 12970 kPa	1015.5 ± 2.1
283.15 K, 13650 kPa	1017.6 ± 2.1
283.15 K, 16043 kPa	1026 ± 2.1
283.15 K, 19058 kPa	1035.9 ± 2.1
283.15 K, 22343 kPa	1046.6 ± 2.2
283.15 K, 25816 kPa	1057.5 ± 2.2
283.15 K, 30453 kPa	1071.7 ± 2.2
298.15 K, 101 kPa	921.1 ± 1.9
298.15 K, 583 kPa	923.1 ± 1.9
298.15 K, 865 kPa	924.2 ± 1.9
298.15 K, 887 kPa	924.4 ± 1.9
298.15 K, 1384 kPa	926.4 ± 1.9
298.15 K, 1731 kPa	927.8 ± 1.9
298.15 K, 1900 kPa	928.4 ± 1.9
298.15 K, 2056 kPa	929.1 ± 1.9
298.15 K, 2905 kPa	932.5 ± 1.9
298.15 K, 3020 kPa	933 ± 1.9
298.15 K, 3919 kPa	936.6 ± 1.9
298.15 K, 4367 kPa	938.4 ± 1.9
298.15 K, 4908 kPa	940.5 ± 1.9
298.15 K, 5436 kPa	942.6 ± 1.9
298.15 K, 5946 kPa	944.5 ± 2
298.15 K, 6868 kPa	948 ± 2
298.15 K, 7358 kPa	949.9 ± 2
298.15 K, 7761 kPa	951.5 ± 2
298.15 K, 8818 kPa	955.5 ± 2
298.15 K, 8930 kPa	955.9 ± 2
298.15 K, 9903 kPa	959.6 ± 2
298.15 K, 10321 kPa	961.2 ± 2
298.15 K, 11239 kPa	964.6 ± 2
298.15 K, 12541 kPa	969.3 ± 2
298.15 K, 13397 kPa	972.5 ± 2
298.15 K, 14945 kPa	978 ± 2
298.15 K, 15313 kPa	979.4 ± 2
298.15 K, 17404 kPa	986.8 ± 2
298.15 K, 17674 kPa	987.8 ± 2
298.15 K, 20253 kPa	996.7 ± 2.1
298.15 K, 20404 kPa	997.2 ± 2.1
298.15 K, 22533 kPa	1004.5 ± 2.1
298.15 K, 24855 kPa	1012.3 ± 2.1
298.15 K, 24984 kPa	1012.8 ± 2.1
298.15 K, 25186 kPa	1013.4 ± 2.1
298.15 K, 27693 kPa	1021.7 ± 2.1
298.15 K, 29953 kPa	1029 ± 2.1
298.15 K, 30569 kPa	1030.8 ± 2.1
313.15 K, 101 kPa	874.2 ± 1.8
313.15 K, 108 kPa	874.2 ± 1.8
313.15 K, 478 kPa	875.9 ± 1.8
313.15 K, 894 kPa	877.7 ± 1.8
313.15 K, 1827 kPa	881.9 ± 1.8
313.15 K, 2938 kPa	886.7 ± 1.8
313.15 K, 4119 kPa	891.6 ± 1.8
313.15 K, 5135 kPa	896.1 ± 1.9
313.15 K, 5591 kPa	898 ± 1.9
313.15 K, 6975 kPa	903.6 ± 1.9
313.15 K, 8334 kPa	909.4 ± 1.9
313.15 K, 10049 kPa	916.2 ± 1.9
313.15 K, 12992 kPa	927.9 ± 1.9
313.15 K, 14421 kPa	933.4 ± 1.9
313.15 K, 16421 kPa	941.1 ± 1.9
313.15 K, 18812 kPa	949.9 ± 2
313.15 K, 20514 kPa	956.3 ± 2
313.15 K, 25209 kPa	972.9 ± 2
313.15 K, 31645 kPa	994.8 ± 2.1
333.15 K, 101 kPa	813 ± 1.7
333.15 K, 967 kPa	817.4 ± 1.7
333.15 K, 1691 kPa	820.9 ± 1.7
333.15 K, 2195 kPa	823.4 ± 1.7
333.15 K, 3177 kPa	828.1 ± 1.7
333.15 K, 5118 kPa	837.4 ± 1.7
333.15 K, 5595 kPa	839.5 ± 1.7
333.15 K, 7312 kPa	847.3 ± 1.8
333.15 K, 8236 kPa	851.5 ± 1.8
333.15 K, 9201 kPa	855.8 ± 1.8
333.15 K, 10593 kPa	862 ± 1.8
333.15 K, 11851 kPa	867.4 ± 1.8
333.15 K, 13131 kPa	872.9 ± 1.8
333.15 K, 14740 kPa	879.6 ± 1.8
333.15 K, 15989 kPa	884.8 ± 1.8
333.15 K, 17758 kPa	892.1 ± 1.8
333.15 K, 19476 kPa	898.9 ± 1.9
333.15 K, 20905 kPa	904.6 ± 1.9
333.15 K, 22422 kPa	910.5 ± 1.9
333.15 K, 25433 kPa	922 ± 1.9
333.15 K, 27880 kPa	931.1 ± 1.9
333.15 K, 31372 kPa	943.7 ± 1.9
